Data reported in patent US8563542B2 (Cyclacel Limited, priority 2007, dated 2013).
Where two headings read alike, the source gives them in different places.

Columns and labels:
PLK1 = PLK1 (Homo sapiens, UniProt P53350); test: PLK1 protein kinase assay (CDC25C phosphorylation, [γ-32P]-ATP); assay type: biochemical; settings: read-out: PLK1 IC50
AA = biological target: T1, AA (Homo sapiens, UniProt O14965); test: AA IC50 (Table 1; no method given); assay type: biochemical
T1 sequence (O14965 1-403): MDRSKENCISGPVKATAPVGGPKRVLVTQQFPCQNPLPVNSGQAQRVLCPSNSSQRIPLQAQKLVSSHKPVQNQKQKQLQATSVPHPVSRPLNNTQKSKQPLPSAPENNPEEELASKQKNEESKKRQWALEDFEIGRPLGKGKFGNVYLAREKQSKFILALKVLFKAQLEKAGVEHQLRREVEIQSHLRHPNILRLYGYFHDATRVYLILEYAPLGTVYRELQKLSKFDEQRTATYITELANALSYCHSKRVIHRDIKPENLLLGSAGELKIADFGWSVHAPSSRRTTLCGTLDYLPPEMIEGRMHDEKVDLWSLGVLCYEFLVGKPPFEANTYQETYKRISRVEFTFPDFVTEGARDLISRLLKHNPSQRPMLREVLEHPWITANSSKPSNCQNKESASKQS

[1] = Table 2, PLK1 IC50, class symbols
[2] = Table 2, AurA IC50, class symbols, read-out: AurA IC50

PLK1, sequence (P53350 whole entry): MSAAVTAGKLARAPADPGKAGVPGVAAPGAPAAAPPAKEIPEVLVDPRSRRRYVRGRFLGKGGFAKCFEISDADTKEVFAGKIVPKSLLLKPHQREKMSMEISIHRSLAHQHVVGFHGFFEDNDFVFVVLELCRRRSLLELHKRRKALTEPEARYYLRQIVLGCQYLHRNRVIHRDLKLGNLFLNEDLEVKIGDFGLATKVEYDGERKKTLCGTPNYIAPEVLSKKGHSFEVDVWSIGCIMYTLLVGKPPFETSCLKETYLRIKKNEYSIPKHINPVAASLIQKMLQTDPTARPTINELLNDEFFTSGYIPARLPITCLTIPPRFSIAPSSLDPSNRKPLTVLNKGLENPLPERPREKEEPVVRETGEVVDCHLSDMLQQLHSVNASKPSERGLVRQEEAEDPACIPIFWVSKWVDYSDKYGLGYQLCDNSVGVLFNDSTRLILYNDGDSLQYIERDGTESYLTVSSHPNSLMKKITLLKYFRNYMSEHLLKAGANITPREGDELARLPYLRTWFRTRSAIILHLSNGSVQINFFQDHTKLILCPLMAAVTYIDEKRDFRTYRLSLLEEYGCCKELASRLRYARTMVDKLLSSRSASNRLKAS

IC50 (AA; [2]) | Compound | other results
< 0.1 µM | CCC1CN(C2CCCC2)c2nc(Nc3ccc(C(=O)O)cc3)ncc2N(C)C1=O (centres unmarked) [compound 41, 4-(9-Cyclopentyl-7-ethyl-5-methyl-6-oxo-6,7,8,9-tetrahydro-5H-pyrimido[4,5-b][1,4]diazepin-2-ylamino)-benzoic acid] | IC50 (PLK1; [1]): < 1 µM
< 0.1 µM | CN1C(=O)CCN(C2CCCC2)c2nc(Nc3ccc4c(c3)CS(=O)(=O)C4)ncc21 [compound 46, 9-Cyclopentyl-2-(2,2-dioxo-2,3-dihydro-1H-2lambda*6*-benzo[c]thiophen-5-ylamino)-5-methyl-5,7,8,9-tetrahydro-pyrimido[4,5-b][1,4]diazepin-6-one] | IC50 (PLK1; [1]): < 10 µM
< 0.1 µM | Cc1cc(Nc2ncc3c(n2)N(C2CCCC2)CCC(=O)N3C)ccc1N(S(C)(=O)=O)S(C)(=O)=O [compound 288] | –
< 1 µM | CN1C(=O)CCN(C2CCCC2)c2nc(Nc3ccc(S(=O)(=O)NC4CCS(=O)(=O)C4)cc3)ncc21 (centres unmarked) [compound 325, 4-(9-Cyclopentyl-5-methyl-6-oxo-6,7,8,9-tetrahydro-5H-pyrimido[4,5-b][1,4]diazepin-2-ylamino)-N-(1,1-dioxo-tetrahydro-1lambda*6*- thiophen-3-yl)-benzenesulfonamide] | –
< 0.1 µM | COc1ccc(N2CCC(=O)N(C)c3cnc(Nc4ccc(NC(=O)C5CC5)c(C)c4)nc32)cc1 [compound 327, Cyclopropanecarboxylic acid {4-[9-(4-methoxy-phenyl)-5-methyl-6-oxo-6,7,8,9-tetrahydro-5H-pyrimido[4,5-b][1,4]diazepin-2-ylamino]-2-methyl-phenyl}-amide] | –
< 10 µM | CCN1C(=O)CCN(c2ccc(C)cc2)c2nc(Nc3ccc(NC(=O)C4CC4)c(C)c3)ncc21 [compound 328, Cyclopropanecarboxylic acid [4-(5-ethyl-6-oxo-9-p-tolyl-6,7,8,9-tetrahydro-5H-pyrimido[4,5-b][1,4]diazepin-2-ylamino)-2-methyl-phenyl]-amide] | –
< 1 µM | Cc1cc(Nc2ncc3c(n2)N(c2c(F)cccc2F)CCC(=O)N3C)ccc1NC(=O)C1CC1 [compound 329, Cyclopropanecarboxylic acid {4-[9-(2,6-difluoro-phenyl)-5-methyl-6-oxo-6,7,8,9-tetrahydro-5H-pyrimido[4,5-b][1,4]diazepin-2-ylamino]-2-methyl-phenyl}amide] | –
< 10 µM | Cc1cc(Nc2ncc3c(n2)N(c2ccc(C(C)(C)C)cc2)CCC(=O)N3C)ccc1NC(=O)C1CC1 [compound 342] | –

The remaining lines, values behind:

Compound | IC50 (AA; [2]) | other results
COc1cc(C(=O)O)ccc1Nc1ncc2c(n1)N(C1CCCC1)CCC(=O)N2C [compound 1, 4-(9-Cyclopentyl-5-methyl-6-oxo-6,7,8,9-tetrahydro-5H-pyrimido[4,5-b][1,4]diazepin-2-ylamino)-3-methoxy-benzoic acid] | – | IC50 (PLK1; Table 1): < 1 µM; IC50 (AA; Table 1, read-out: AA IC50): 1 to 10 µM
CC1CC(=O)Nc2cnc(Nc3ccc(C(=O)O)cc3)nc2N1C1CCCC1 (centres unmarked) [compound 7] | – | IC50 (PLK1; Table 1): < 1 µM; IC50 (AA; Table 1, read-out: AA IC50): 1 to 10 µM
CC1CC(=O)N(C)c2cnc(Nc3ccc(C(=O)O)cc3)nc2N1C1CCCC1 (centres unmarked) [compound 8, 4-(9-Cyclopentyl-5,8-dimethyl-6-oxo-6,7,8,9-tetrahydro-5H-pyrimido[4,5-b][1,4]diazepin-2-ylamino)-benzoic acid] | – | IC50 (PLK1; Table 1): < 1 µM; IC50 (AA; Table 1, read-out: AA IC50): < 0.1 µM
CN1C(=O)CCN(c2ccccc2)c2nc(Nc3ccc(C(=O)O)cc3)ncc21 [compound 15, 4-(5-Methyl-6-oxo-9-phenyl-6,7,8,9-tetrahydro-5H-pyrimido[4,5-b][1,4]diazepin-2-ylamino)-benzoic acid] | – | IC50 (PLK1; Table 1): < 10 µM; IC50 (AA; Table 1, read-out: AA IC50): 0.1 to 1 µM
CC1CN(C2CCCC2)c2nc(Nc3ccc(C(=O)NC4CCN(C)CC4)cc3)ncc2NC1=O (centres unmarked) [compound 18, 4-(9-Cyclopentyl-7-methyl-6-oxo-6,7,8,9-tetrahydro-5H-pyrimido[4,5-b][1,4]diazepin-2-ylamino)-N-(1-methyl-piperidin-4-yl)-benzamide] | – | IC50 (PLK1; Table 1): < 10 µM; IC50 (AA; Table 1, read-out: AA IC50): 1 to 10 µM
CC1CC(=O)N(C)c2cnc(Nc3ccc(C(=O)NC4CCN(C)CC4)cc3)nc2N1C1CCCC1 (centres unmarked) [compound 37, 4-(9-Cyclopentyl-5,8-dimethyl-6-oxo-6,7,8,9-tetrahydro-5H-pyrimido[4,5-b][1,4]diazepin-2-ylamino)-N-(1-methyl-piperidin-4-yl)-benzamide] | – | IC50 (PLK1; Table 1): < 1 µM; IC50 (AA; Table 1, read-out: AA IC50): 0.1 to 1 µM
COc1cc(C(=O)NC2CCN(C)CC2)ccc1Nc1ncc2c(n1)N(C(C)(C)C)CCC(=O)N2C [compound 42, 4-(9-tert-Butyl-5-methyl-6-oxo-6,7,8,9-tetrahydro-5H-pyrimido[4,5-b][1,4]diazepin-2-ylamino)-3-methoxy-N-(1-methyl-piperidin-4-yl)-benzamide] | < 1 µM | IC50 (PLK1; [1]): < 10 µM
CCN1C(=O)CCN(c2ccc(OC)cc2)c2nc(Nc3ccc(NC(=O)C4CC4)c(C)c3)ncc21 [compound 330, Cyclopropanecarboxylic acid {4-[5-ethyl-9-(4-methoxy-phenyl)-6-oxo-6,7,8,9-tetrahydro-5H-pyrimido[4,5-b][1,4]diazepin-2-ylamino]-2-methyl-phenyl}-amide] | < 10 µM | –
CCN1C(=O)CCN(c2ccc(C)cc2)c2nc(Nc3ccc4c(c3)CS(=O)(=O)C4)ncc21 [compound 331, 2-(2,2-Dioxo-2,3-dihydro-1H-2lambda*6*- benzo[c]thiophen-5-ylamino)-5-ethyl-9-p-tolyl-5,7,8,9-tetrahydro-pyrimido[4,5-b][1,4]diazepin-6-one] | < 0.1 µM | –
COc1ccc(N2CCC(=O)N(C)c3cnc(Nc4ccc5c(c4)CS(=O)(=O)C5)nc32)cc1 [compound 332, 2-(2,2-Dioxo-2,3-dihydro-1H-2lambda*6*- benzo[c]thiophen-5-ylamino)-9-(4-methoxy-phenyl)-5-methyl-5,7,8,9-tetrahydro-pyrimido[4,5-b][1,4]diazepin-6-one] | < 0.1 µM | –
CCN1C(=O)CCN(c2ccc(OC)cc2)c2nc(Nc3ccc4c(c3)CS(=O)(=O)C4)ncc21 [compound 333, 2-(2,2-Dioxo-2,3-dihydro-1H-2lambda*6*- benzo[c]thiophen-5-ylamino)-5-ethyl-9-(4-methoxy-phenyl)-5,7,8,9-tetrahydro-pyrimido[4,5-b][1,4]diazepin-6-one] | < 0.1 µM | –
CN1C(=O)CCN(c2ccc(C(C)(C)C)cc2)c2nc(Nc3ccc4c(c3)CS(=O)(=O)C4)ncc21 [compound 334, 9-(4-tert-Butyl-phenyl)-2-(2,2-dioxo-2,3-dihydro-1H-2lambda*6*-benzo[c]thiophen-5-ylamino)-5-methyl-5,7,8,9-tetrahydro-pyrimido[4,5-b][1,4]diazepin-6-one] | < 10 µM | –
CCN1C(=O)CCN(c2ccc(C(C)(C)C)cc2)c2nc(Nc3ccc4c(c3)CS(=O)(=O)C4)ncc21 [compound 335, 9-(4-tert-Butyl-phenyl)-2-(2,2-dioxo-2,3-dihydro-1H-2lambda*6*-benzo[c]thiophen-5-ylamino)-5-ethyl-5,7,8,9-tetrahydro-pyrimido[4,5-b][1,4]diazepin-6-one] | < 10 µM | –
CN1C(=O)CCN(c2ccc(N3CCOCC3)cc2)c2nc(Nc3ccc4c(c3)CS(=O)(=O)C4)ncc21 [compound 336, 2-(2,2-Dioxo-2,3-dihydro-1H-2lambda*6*- benzo[c]thiophen-5-ylamino)-5-methyl-9-(4-morpholin-4-yl-phenyl)-5,7,8,9-tetrahydro-pyrimido[4,5-b][1,4]diazepin-6-one] | < 0.1 µM | –
Cc1cc(Nc2ncc3c(n2)N(c2ccc(N4CCOCC4)cc2)CCC(=O)N3C)ccc1NC(=O)C1CC1 [compound 337] | < 0.1 µM | –
CCN1C(=O)CCN(c2ccc(N3CCOCC3)cc2)c2nc(Nc3ccc4c(c3)CS(=O)(=O)C4)ncc21 [compound 338, 2-(2,2-Dioxo-2,3-dihydro-1H-2lambda*6*- benzo[c]thiophen-5-ylamino)-5-ethyl-9-(4-morpholin-4-yl-phenyl)-5,7,8,9-tetrahydro-pyrimido[4,5-b][1,4]diazepin-6-one] | < 1 µM | –
CN1C(=O)CCN(c2c(F)cccc2F)c2nc(Nc3ccc4c(c3)CS(=O)(=O)C4)ncc21 [compound 339, 9-(2,6-Difluoro-phenyl)-2-(2,2-dioxo-2,3-dihydro-1H-2lambda*6*-benzo[c]thiophen-5-ylamino)-5-methyl-5,7,8,9-tetrahydro-pyrimido[4,5-b][1,4]diazepin-6-one] | < 0.1 µM | –
CCN1C(=O)CCN(c2c(F)cccc2F)c2nc(Nc3ccc4c(c3)CS(=O)(=O)C4)ncc21 [compound 340, 9-(2,6-Difluoro-phenyl)-2-(2,2-dioxo-2,3-dihydro-1H-2lambda*6*-benzo[c]thiophen-5-ylamino)-5-ethyl-5,7,8,9-tetrahydro-pyrimido[4,5-b][1,4]diazepin-6-one] | < 1 µM | –
COc1ccc(N2CCC(=O)N(C)c3cnc(Nc4ccc(S(=O)(=O)NC(C)=O)cc4)nc32)cc1 [compound 350, N-Acetyl-4-[9-(4-methoxy-phenyl)-5-methyl-6-oxo-6,7,8,9-tetrahydro-5H-pyrimido[4,5-b][1,4]diazepin-2-ylamino]-benzenesulfonamide] | < 1 µM | –
CC(=O)NS(=O)(=O)c1ccc(Nc2ncc3c(n2)N(c2c(F)cccc2F)CCC(=O)N3C)cc1 [compound 351, N-Acetyl-4-[9-(2,6-difluoro-phenyl)-5-methyl-6-oxo-6,7,8,9-tetrahydro-5H-pyrimido[4,5-b][1,4]diazepin-2-ylamino]-benzenesulfonamide] | < 0.1 µM | –
CC(=O)NS(=O)(=O)c1ccc(Nc2ncc3c(n2)N(c2ccc(N4CCOCC4)cc2)CCC(=O)N3C)cc1 [compound 352] | < 1 µM | –
